This is an account of results in patent US12440496B2, “Natriuretic peptide receptor a agonists useful for the treatment of cardiometabolic diseases, kidney disease and diabetes” (Merck Sharp & Dohme LLC, priority 2019, dated 2025).

Molecules are shown by their SMILES. Where a name gives a salt, the structure may show the parent alone.

The target of this experiment is T1, hNPRA (Homo sapiens, UniProt P16066).
T1 construct: expressed in transfected cells
T1 sequence (P16066 33-1061): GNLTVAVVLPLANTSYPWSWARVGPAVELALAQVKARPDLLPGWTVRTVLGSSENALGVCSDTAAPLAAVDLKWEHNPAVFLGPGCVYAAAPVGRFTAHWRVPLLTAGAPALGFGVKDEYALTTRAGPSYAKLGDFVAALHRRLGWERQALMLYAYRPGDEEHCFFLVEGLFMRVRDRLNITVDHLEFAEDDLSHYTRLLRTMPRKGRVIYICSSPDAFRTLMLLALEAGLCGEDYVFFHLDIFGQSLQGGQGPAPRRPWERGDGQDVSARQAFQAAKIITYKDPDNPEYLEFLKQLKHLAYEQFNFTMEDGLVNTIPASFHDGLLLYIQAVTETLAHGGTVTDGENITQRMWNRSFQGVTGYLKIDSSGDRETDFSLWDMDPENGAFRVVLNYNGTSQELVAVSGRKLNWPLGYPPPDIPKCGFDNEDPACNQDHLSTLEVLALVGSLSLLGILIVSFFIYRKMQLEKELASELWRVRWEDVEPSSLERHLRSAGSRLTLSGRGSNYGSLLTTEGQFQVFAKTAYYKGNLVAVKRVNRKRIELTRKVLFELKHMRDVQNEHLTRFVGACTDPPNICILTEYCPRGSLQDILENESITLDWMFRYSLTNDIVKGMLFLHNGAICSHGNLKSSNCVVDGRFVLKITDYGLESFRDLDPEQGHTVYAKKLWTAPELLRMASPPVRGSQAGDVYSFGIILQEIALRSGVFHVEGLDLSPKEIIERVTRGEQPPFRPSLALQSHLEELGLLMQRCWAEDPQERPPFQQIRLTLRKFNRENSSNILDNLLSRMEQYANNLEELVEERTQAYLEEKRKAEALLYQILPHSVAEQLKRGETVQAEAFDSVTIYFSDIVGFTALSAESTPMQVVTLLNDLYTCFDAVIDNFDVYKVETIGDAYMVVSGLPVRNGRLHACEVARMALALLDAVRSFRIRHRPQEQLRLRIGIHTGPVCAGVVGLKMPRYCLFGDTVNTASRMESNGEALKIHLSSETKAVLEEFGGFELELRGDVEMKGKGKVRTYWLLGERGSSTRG
The experiment is described as follows: NPRA Functional Cell Assay (cGMP HTRF, NPRA HEK JumpIn stable cells). It is filed as cell-based. The following applies: cGMP production, 1 hour at 37° C., 10-point dose response. From the text:
NPRA Functional Cell Assay
Assay Buffer components HEPES and Opti-MEM® I Reduced-Serum with Glutamine (no phenol red) were from Gibco/Invitrogen (Thermo Fisher Scientific, Waltham, MA USA). 3-Isobutyl-1-methylxanthine (IBMX) and 4-(3-Butoxy-4-methoxybenzyl) imidazolidin-2-one (RO20) were obtained from Sigma-Aldrich (St. Louis, MO, USA). DPBS (Dulbecco's phosphate-buffered saline) without Ca2+ and Mg2+ was purchased from GE Healthcare Bio-Sciences (Pittsburgh, PA, USA). 384 well white Optiplates were from Perkin Elmer (Atlantic Highlands, NJ, USA). Human ANP (Atrial Natriuretic Peptide) (1-28) was purchased from Sigma-Aldrich (Catalog #A1663) and rat ANP (1-28) from Bachem (Torrance, CA, USA) (Catalog #H2100). Human-BNP (Human-Brain Natriuretic Peptide) (1-32 AA) was purchased from American Peptide Company (Sunnyvale, CA, USA) (product No. 14-1-90). cGMP kits were purchased from Cisbio. The assay ready frozen (ARF) Human/rat/dog NPRA HEK JumpIn Stable frozen cells (low passage number 5-11) were prepared in-house.
Test compounds were titrated in DMSO in a 10-point dose response in a separate step followed by a 100-fold dilution into the reaction. Positive response for each assay was determined using 10 nM rat-ANP peptide (rat cells) or 50 nM h-ANP peptide (human and dog cells).
Cells were thawed, washed with DPBS and resuspended in assay buffer (Opti-MEM+Glutamine, phenol red free media, 10 mM HEPES, 100 uM IBMX and 100 uM RO20) that was warmed to 37° C. Cells were then transferred to microplates via a Microplate Combi dispenser at a density of 1500, 400 and 1200 cells/well for human, rat and dog cells respectively, followed by acoustic transfer (Echo) of compound.
Compounds and cells were incubated at 37° C. with 5% CO2 for 1 hour, after which the cells were lysed and cGMP was captured using a CisBio cGMP HTRF assay kit. The TRF signal was measured with an Envision plate reader (emission set to 615 and 665 nm) after 1 hour incubation at ambient temperature. The TRF signal was converted to [cGMP] through the use of a cGMP calibration curve on each microplate. EC50's were generated from the resulting dose response curves by use of a 4 parameter logistic algorithm.
Assay Buffer components HEPES and Opti-MEM® I Reduced-Serum with Glutamine (no phenol red) were from Gibco/Invitrogen. 3-Isobutyl-1-methylxanthine (IBMX) and 4-(3-Butoxy-4-methoxybenzyl) imidazolidin-2-one (RO20) were obtained from Sigma. DPBS (Dulbecco's phosphate-buffered saline) without Ca2+ and Mg2+ was purchased from GE Healthcare Bio-Sciences (Pittsburgh, PA, USA). 384 well white Optiplates were from Perkin Elmer (Atlantic Highlands, NJ, USA). Human ANP (1-28) was purchased from Sigma (A1663) and rat ANP (1-28) from Bachem (H2100). Human-BNP (1-32 AA) was purchased from American Peptide Company (Sunnyvale, CA, USA) (product No. 14-1-90). cGMP kits were purchased from Cisbio (Bedford, MA, USA). The assay ready frozen (ARF) Human/rat/dog NPRA HEK JumpIn Stable frozen cells (low passage number 5-11) were prepared in-house.
Compounds and cells were incubated at 37° C. with 5% CO2 for 1 hour, after which the cells were lysed and cGMP was captured using a CisBio cGMP HTRF assay kit. The TRF signal was measured with an Envision® plate reader (Perkin Elmer) (emission set to 615 and 665 nm) after 1 hour incubation at ambient temperature. The TRF signal was converted to [cGMP] through the use of a cGMP calibration curve on each microplate. EC50's were generated from the resulting dose response curves by use of a 4 parameter logistic algorithm.
hNPRA EC50 (nM) were determined for the compounds of Example 1 through Example 273 and are reported in the Experimental section of this application.
For orientation: In TR-FRET formats the signal depends on donor and acceptor labels being close together.
In the case of `CC(C)(C)[C@H]1CCc2nc3sc(C(=O)N[C@H](CCN4CC[C@H](C(=O)O)[C@@H](F)C4)c4ccc(-c5cnc(O)c(F)c5)cc4)nc3cc2C1` (racemic) [Example 203, rac-(3R,4R)-3-fluoro-1-[rac-(3R)-3-[4-(5-fluoro-6-hydroxy-3-pyridyl)phenyl]-3-[[rac-(7S)-7-tert-butyl-5,6,7,8-tetrahydrothiazolo[5,4-b]quinoline-2-carbonyl]amino]propyl]piperidin-1-ium-4-carboxylic acid; formate], the midpoint of the response, the EC50, lay at 1.19 µM.
The result for `CC(C)(C)[C@H]1CCc2nc3sc(C(=O)N[C@H](CCN4CCC(O)CC4)c4cccc(N5CC6(CCNCC6)OC5=O)c4)nc3cc2C1` (racemic) [Example 116, rac-(7S)-7-tert-butyl-N-[rac-(1R)-3-(4-hydroxy-1-piperidyl)-1-[3-(2-oxo-1-oxa-3-aza-8-azoniaspiro [4.5]decan-3-yl)phenyl]propyl]-5,6,7,8-tetrahydrothiazolo[5,4-b] quinoline-2-carboxamide; 2,2,2-trifluoroacetate] reads 0.622 µM; that for `CCS(=O)(=O)c1ccc([C@@H](CCN2CCC(O)CC2)NC(=O)c2nc3cc4c(nc3s2)CC[C@H](C(C)(C)C)C4)cn1` [Example 227, (S)-7-(tert-butyl)-N-((R)-1-(6-(ethylsulfonyl)pyridin-3-yl)-3-(4-hydroxypiperidin-1-yl)propyl)-5,6,7,8-tetrahydrothiazolo[5,4-b]quinoline-2-carboxamide], 0.696 µM.
The result for `CC(C)(C)[C@H]1CCc2nc3sc(C(=O)N[C@H](CCN4CCC(O)CC4)c4ccc(-c5cc(F)c(O)c(F)c5)cc4)nc3cc2C1` (racemic) [Example 184, rac-(7S)-7-tert-butyl-N-[rac-(1R)-1-[4-(3,5-difluoro-4-hydroxy-phenyl)phenyl]-3-(4-hydroxypiperidin-1-ium-1-yl)propyl]-5,6,7,8-tetrahydrothiazolo[5,4-b]quinoline-2-carboxamide; 2,2,2-trifluoroacetate] reads 1.7 µM; that for `CN1CC(NCC[C@@H](NC(=O)c2cc3cc4c(nc3s2)CC[C@H](C(C)(C)C)C4)c2ccc(-c3ccc(=O)[nH]c3)cc2)C1` (racemic) [Example 64, (1-methylazetidin-3-yl)-[rac-(3R)-3-[4-(6-oxo-1H-pyridin-3-yl)phenyl]-3-[[rac-(6S)-6-tert-butyl-5,6,7,8-tetrahydrothieno[2,3-b]quinoline-2-carbonyl]amino]propyl] ammonium;formate], 1.23 µM; that for `CC(C)(C)[C@H]1CCc2nc3sc(C(=O)N[C@H](CCN4CCC(O)CC4)c4ccc(-c5cncs5)cc4)nc3cc2C1` (racemic) [Example 185, rac-(7S)-7-tert-butyl-N-[rac-(1R)-3-(4-hydroxypiperidin-1-ium-1-yl)-1-(4-thiazol-5-ylphenyl)propyl]-5,6,7,8-tetrahydrothiazolo[5,4-b]quinoline-2-carboxamide; 2,2,2-trifluoroacetate], 1.92 µM.
The result for `CC(C)(C)[C@H]1CCc2nc3sc(C(=O)N[C@H](CCN4CCC(O)CC4)c4ccc(-c5cc(=O)[nH]c(=O)[nH]5)cc4)nc3cc2C1` (racemic) [Example 182, rac-(7S)-7-tert-butyl-N-[rac-(1R)-1-[4-(2,4-dioxo-1H-pyrimidin-6-yl)phenyl]-3-(4-hydroxy-1-piperidyl)propyl]-5,6,7,8-tetrahydrothiazolo[5,4-b]quinoline-2-carboxamide] reads 1.61 µM; that for `CC(C)(C)[C@H]1CCc2nc3sc(C(=O)N[C@H](CCN4CCC(O)CC4)c4ccc(-c5c[nH]nc5C(F)(F)F)cc4)nc3cc2C1` (racemic) [Example 167, rac-(7S)-7-tert-butyl-N-[rac-(1R)-3-(4-hydroxypiperidin-1-ium-1-yl)-1-[4-[3-(trifluoromethyl)-1H-pyrazol-4-yl]phenyl]propyl]-5,6,7,8-tetrahydrothiazolo[5,4-b]quinoline-2-carboxamide; 2,2,2-trifluoroacetate], 0.666 µM; that for `CC1([C@H]2CCc3nc4sc(C(=O)N[C@H](CCN5CCC(O)CC5)c5ccc(-c6ccnnc6)nc5)nc4cc3C2)CC1` [Example 264, (S)-N-((R)-3-(4-hydroxypiperidin-1-yl)-1-(6-(pyridazin-4-yl)pyridin-3-yl)propyl)-7-(1-methylcyclopropyl)-5,6,7,8-tetrahydrothiazolo[5,4-b]quinoline-2-carboxamide], 0.113 µM.
Take `Cc1cc(-c2ccc([C@@H](CCN3CCCCC3)NC(=O)c3cc4cc5c(nc4s3)CC[C@H](C(C)(C)C)C5)cc2)cnc1O` [Example 239, (6S)-6-tert-butyl-N-{(1R)-1-[4-(6-hydroxy-5-methylpyridin-3-yl)phenyl]-3-piperidin-1-ylpropyl}-5,6,7,8-tetrahydrothieno[2,3-b]quinoline-2-carboxamide]: it took 1.4 µM to reach a half-maximal effect (EC50).
The same measure for `Cc1nc(O)ccc1-c1ccc([C@@H](CCN2CCCCC2)NC(=O)c2cc3cc4c(nc3s2)CC[C@H](C(C)(C)C)C4)cc1` [Example 240, (6S)-6-tert-butyl-N-{(1R)-1-[4-(6-hydroxy-2-methylpyridin-3-yl)phenyl]-3-piperidin-1-ylpropyl}-5,6,7,8-tetrahydrothieno[2,3-b]quinoline-2-carboxamide]: 1.66 µM.
The result for `CN(C)S(=O)(=O)Nc1ccc([C@@H](CCN2CCNC(=O)CC2)NC(=O)c2nc3cc4c(nc3s2)CC[C@H](C(C)(C)C)C4)cn1` (racemic) [Example 215, rac-(7S)-7-tert-butyl-N-[rac-(1R)-1-[6-(dimethylsulfamoylamino)-3-pyridyl]-3-(5-oxo-1,4-diazepan-1-ium-1-yl)propyl]-5,6,7,8-tetrahydrothiazolo[5,4-b]quinoline-2-carboxamide; 2,2,2-trifluoroacetate] reads 1.61 µM.
